Laboratory results: article PMC4823954, “From fighting depression to conquering tumors: a novel tricyclic thiazepine compound as a tubulin polymerization inhibitor” (Cell Death & Disease, 2016)

Experiments:
Test in all cases: KINOMEscan
Format in all cases: binding
Settings in all cases: read-out: % Ctrl
AURKB = target: T1, AURKB (Homo sapiens, UniProt Q96GD4)
T1 construct: purchased DiscoveRx KINOMEscan
Method: (§1) The binding assay for 442 non-mutant kinases was performed using KINOMEscan (DiscoveRx Corporation, Fremont, CA, USA) as reported previously.[58], [59] TBPT was screened at concentrations of 5 and 10 μM to identify the affected kinases. KINOMEscan is based on a competition reaction that quantitatively measures the ability of a test compound to compete with an active site-directed ligand for binding to the kinase active site. […] After the assay plates were incubated with shaking for 1 h, the liganded beads were washed with washing buffer (1 × PBS and 0.05% Tween 20). Then, the beads were re-suspended in elution buffer (1 × PBS, 0.05% Tween 20, and 0.5 μM ligand) and incubated with shaking for 30 min. The kinase concentration in the eluates was measured via qPCR. The results are represented as ‘%Ctrl', which was calculated using the following formula: (test compound signal–positive control signal)/(DMSO signal–positive control signal) × 100%. A lower % Ctrl indicates stronger binding to the kinase active site.

BMPR1A = target: T2, BMPR1A (Homo sapiens, UniProt P36894)
T2 construct: purchased DiscoveRx KINOMEscan
Method: as §1

BRAF(V600E) = target: T3, BRAF(V600E) (Homo sapiens, UniProt P15056, V600E)
T3 construct: purchased DiscoveRx KINOMEscan
Method: as §1

BTK = target: T4, BTK (Homo sapiens, UniProt Q06187)
T4 construct: purchased DiscoveRx KINOMEscan
Method: as §1

CDC2L5 = target: T5, CDC2L5 (Homo sapiens, UniProt Q14004)
T5 construct: purchased DiscoveRx KINOMEscan
Method: as §1

CDKL3 = target: T6, CDKL3 (Homo sapiens, UniProt Q8IVW4)
T6 construct: purchased DiscoveRx KINOMEscan
Method: as §1

EPHB4 = target: T7, EPHB4 (Homo sapiens, UniProt P54760)
T7 construct: purchased DiscoveRx KINOMEscan
Method: as §1

HIPK2 = target: T8, HIPK2 (Homo sapiens, UniProt Q9H2X6)
T8 construct: purchased DiscoveRx KINOMEscan
Method: as §1

HPK1 = target: T9, HPK1 (Homo sapiens, UniProt Q92918)
T9 construct: purchased DiscoveRx KINOMEscan
Method: as §1

JNK3 = target: T10, JNK3 (Homo sapiens, UniProt P53779)
T10 construct: purchased DiscoveRx KINOMEscan
Method: as §1

KIT(D816V) = target: T11, KIT(D816V) (Homo sapiens, UniProt P10721, D816V)
T11 construct: purchased DiscoveRx KINOMEscan
Method: as §1

LTK = target: T12, LTK (Homo sapiens, UniProt P29376)
T12 construct: purchased DiscoveRx KINOMEscan
Method: as §1

LYN = target: T13, LYN (Homo sapiens, UniProt P07948)
T13 construct: purchased DiscoveRx KINOMEscan
Method: as §1

MELK = target: T14, MELK (Homo sapiens, UniProt Q14680)
T14 construct: purchased DiscoveRx KINOMEscan
Method: as §1

MKNK1 = target: T15, MKNK1 (Homo sapiens, UniProt Q9BUB5)
T15 construct: purchased DiscoveRx KINOMEscan
Method: as §1

MST1R = target: T16, MST1R (Homo sapiens, UniProt Q04912)
T16 construct: purchased DiscoveRx KINOMEscan
Method: as §1

MYLK = target: T17, MYLK (Homo sapiens, UniProt Q15746)
T17 construct: purchased DiscoveRx KINOMEscan
Method: as §1

NEK11 = target: T18, NEK11 (Homo sapiens, UniProt Q8NG66)
T18 construct: purchased DiscoveRx KINOMEscan
Method: as §1

PHKG1 = target: T19, PHKG1 (Homo sapiens, UniProt Q16816)
T19 construct: purchased DiscoveRx KINOMEscan
Method: as §1

PIK3C2G = target: T20, PIK3C2G (Homo sapiens, UniProt O75747)
T20 construct: purchased DiscoveRx KINOMEscan
Method: as §1

PIK3CA(H1047L) = target: T21, PIK3CA(H1047L) (Homo sapiens, UniProt P42336, H1047L)
T21 construct: purchased DiscoveRx KINOMEscan
Method: as §1

PLK4 = target: T22, PLK4 (Homo sapiens, UniProt O00444)
T22 construct: purchased DiscoveRx KINOMEscan
Method: as §1

PRKCI = target: T23, PRKCI (Homo sapiens, UniProt P41743)
T23 construct: purchased DiscoveRx KINOMEscan
Method: as §1

RAF1 = target: T24, RAF1 (Homo sapiens, UniProt P04049)
T24 construct: purchased DiscoveRx KINOMEscan
Method: as §1

ROCK1 = target: T25, ROCK1 (Homo sapiens, UniProt Q13464)
T25 construct: purchased DiscoveRx KINOMEscan
Method: as §1

SgK110 = target: T26, SgK110 (Homo sapiens, UniProt P0C264)
T26 construct: purchased DiscoveRx KINOMEscan
Method: as §1

TAK1 = target: T27, TAK1 (Homo sapiens, UniProt O43318)
T27 construct: purchased DiscoveRx KINOMEscan
Method: as §1

TAOK2 = target: T28, TAOK2 (Homo sapiens, UniProt Q9UL54)
T28 construct: purchased DiscoveRx KINOMEscan
Method: as §1

VEGFR2 = target: T29, VEGFR2 (Homo sapiens, UniProt P35968)
T29 construct: purchased DiscoveRx KINOMEscan
Method: as §1

YES = target: T30, YES (Homo sapiens, UniProt P07947)
T30 construct: purchased DiscoveRx KINOMEscan
Method: as §1

T6 sequence (Q8IVW4 whole entry): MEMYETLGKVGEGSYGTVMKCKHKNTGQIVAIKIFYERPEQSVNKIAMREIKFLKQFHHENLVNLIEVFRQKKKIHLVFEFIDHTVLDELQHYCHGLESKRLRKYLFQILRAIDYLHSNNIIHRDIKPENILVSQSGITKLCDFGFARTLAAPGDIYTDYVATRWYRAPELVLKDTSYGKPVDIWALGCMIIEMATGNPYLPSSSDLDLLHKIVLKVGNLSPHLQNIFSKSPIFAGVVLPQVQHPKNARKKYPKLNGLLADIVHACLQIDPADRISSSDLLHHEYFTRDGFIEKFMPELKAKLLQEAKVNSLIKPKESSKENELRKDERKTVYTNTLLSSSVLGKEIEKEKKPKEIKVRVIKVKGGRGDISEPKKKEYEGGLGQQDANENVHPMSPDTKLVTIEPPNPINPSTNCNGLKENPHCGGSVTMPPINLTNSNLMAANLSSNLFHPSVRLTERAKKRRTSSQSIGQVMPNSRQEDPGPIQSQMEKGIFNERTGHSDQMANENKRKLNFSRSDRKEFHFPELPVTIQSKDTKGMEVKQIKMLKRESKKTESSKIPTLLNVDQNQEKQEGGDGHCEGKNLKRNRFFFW
T15 sequence (Q9BUB5 whole entry): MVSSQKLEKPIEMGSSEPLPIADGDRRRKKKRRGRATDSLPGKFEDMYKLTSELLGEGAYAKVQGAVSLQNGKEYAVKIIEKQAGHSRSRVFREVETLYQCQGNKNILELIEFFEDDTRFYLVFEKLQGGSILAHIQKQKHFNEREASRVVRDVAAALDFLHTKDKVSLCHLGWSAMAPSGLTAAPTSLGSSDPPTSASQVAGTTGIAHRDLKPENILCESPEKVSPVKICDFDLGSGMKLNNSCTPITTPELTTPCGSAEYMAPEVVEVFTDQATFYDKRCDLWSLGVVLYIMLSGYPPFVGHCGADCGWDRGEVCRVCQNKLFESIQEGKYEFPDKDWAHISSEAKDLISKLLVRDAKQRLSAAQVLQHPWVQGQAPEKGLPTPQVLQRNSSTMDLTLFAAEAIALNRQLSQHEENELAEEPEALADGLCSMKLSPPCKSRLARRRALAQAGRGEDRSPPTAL
T13 sequence (P07948 whole entry): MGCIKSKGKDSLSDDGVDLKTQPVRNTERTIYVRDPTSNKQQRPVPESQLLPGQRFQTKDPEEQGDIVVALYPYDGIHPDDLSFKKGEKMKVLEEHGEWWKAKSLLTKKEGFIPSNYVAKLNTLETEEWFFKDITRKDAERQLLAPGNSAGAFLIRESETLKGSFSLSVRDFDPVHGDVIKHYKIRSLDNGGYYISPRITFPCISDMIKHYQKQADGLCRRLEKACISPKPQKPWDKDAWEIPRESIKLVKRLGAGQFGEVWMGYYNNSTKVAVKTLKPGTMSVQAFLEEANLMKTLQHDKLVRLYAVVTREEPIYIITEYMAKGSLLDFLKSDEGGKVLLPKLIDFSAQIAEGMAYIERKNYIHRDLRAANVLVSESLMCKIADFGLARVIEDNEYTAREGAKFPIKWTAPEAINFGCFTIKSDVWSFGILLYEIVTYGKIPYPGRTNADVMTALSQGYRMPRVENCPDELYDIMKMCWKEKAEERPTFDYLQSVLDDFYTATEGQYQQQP
T16 sequence (Q04912 25-1400): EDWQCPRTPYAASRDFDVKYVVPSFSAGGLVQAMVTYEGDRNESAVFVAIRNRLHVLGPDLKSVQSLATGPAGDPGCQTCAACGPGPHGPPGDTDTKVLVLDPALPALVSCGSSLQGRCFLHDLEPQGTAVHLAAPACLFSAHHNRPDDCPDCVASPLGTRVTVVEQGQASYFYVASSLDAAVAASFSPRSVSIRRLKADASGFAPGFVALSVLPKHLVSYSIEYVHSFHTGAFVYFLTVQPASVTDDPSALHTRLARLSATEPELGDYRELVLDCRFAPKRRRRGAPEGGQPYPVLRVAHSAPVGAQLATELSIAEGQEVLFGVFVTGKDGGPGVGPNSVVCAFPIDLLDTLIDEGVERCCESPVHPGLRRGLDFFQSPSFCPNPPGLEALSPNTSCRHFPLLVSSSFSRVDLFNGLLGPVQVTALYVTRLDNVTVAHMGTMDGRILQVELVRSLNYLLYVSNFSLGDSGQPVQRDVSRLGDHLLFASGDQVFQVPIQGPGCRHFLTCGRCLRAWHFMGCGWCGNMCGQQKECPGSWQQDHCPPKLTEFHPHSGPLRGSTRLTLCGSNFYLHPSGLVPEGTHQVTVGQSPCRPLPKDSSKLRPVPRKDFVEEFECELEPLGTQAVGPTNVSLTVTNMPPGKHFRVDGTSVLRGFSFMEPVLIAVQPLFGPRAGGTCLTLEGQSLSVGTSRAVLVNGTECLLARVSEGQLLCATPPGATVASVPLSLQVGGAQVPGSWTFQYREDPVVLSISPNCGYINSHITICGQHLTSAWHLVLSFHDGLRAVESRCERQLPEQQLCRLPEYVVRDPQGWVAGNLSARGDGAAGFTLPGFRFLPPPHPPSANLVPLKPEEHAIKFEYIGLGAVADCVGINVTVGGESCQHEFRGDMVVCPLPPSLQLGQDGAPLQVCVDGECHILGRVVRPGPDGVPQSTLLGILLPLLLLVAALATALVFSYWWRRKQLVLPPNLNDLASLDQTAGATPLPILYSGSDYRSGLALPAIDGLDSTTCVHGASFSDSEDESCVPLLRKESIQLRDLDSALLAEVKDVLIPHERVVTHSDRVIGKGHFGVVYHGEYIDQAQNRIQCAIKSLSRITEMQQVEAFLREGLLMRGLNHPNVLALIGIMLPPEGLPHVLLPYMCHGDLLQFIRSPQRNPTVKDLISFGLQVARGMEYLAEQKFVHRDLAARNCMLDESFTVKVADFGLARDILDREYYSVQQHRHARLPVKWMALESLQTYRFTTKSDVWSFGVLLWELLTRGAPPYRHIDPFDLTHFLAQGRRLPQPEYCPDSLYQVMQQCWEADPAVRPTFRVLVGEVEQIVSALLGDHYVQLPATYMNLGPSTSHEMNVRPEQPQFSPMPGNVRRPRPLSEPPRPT
T19 sequence (Q16816 whole entry): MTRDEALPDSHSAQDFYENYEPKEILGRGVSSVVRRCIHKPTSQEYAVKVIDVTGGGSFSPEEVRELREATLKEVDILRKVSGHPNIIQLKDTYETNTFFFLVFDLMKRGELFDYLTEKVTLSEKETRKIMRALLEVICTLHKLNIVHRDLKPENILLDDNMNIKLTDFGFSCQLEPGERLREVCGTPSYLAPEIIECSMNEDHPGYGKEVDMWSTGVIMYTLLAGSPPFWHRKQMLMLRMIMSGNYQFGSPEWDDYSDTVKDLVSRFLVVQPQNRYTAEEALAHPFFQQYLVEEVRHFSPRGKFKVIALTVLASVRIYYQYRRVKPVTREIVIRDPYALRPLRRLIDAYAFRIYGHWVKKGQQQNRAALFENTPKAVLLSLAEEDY
T20 sequence (O75747 whole entry): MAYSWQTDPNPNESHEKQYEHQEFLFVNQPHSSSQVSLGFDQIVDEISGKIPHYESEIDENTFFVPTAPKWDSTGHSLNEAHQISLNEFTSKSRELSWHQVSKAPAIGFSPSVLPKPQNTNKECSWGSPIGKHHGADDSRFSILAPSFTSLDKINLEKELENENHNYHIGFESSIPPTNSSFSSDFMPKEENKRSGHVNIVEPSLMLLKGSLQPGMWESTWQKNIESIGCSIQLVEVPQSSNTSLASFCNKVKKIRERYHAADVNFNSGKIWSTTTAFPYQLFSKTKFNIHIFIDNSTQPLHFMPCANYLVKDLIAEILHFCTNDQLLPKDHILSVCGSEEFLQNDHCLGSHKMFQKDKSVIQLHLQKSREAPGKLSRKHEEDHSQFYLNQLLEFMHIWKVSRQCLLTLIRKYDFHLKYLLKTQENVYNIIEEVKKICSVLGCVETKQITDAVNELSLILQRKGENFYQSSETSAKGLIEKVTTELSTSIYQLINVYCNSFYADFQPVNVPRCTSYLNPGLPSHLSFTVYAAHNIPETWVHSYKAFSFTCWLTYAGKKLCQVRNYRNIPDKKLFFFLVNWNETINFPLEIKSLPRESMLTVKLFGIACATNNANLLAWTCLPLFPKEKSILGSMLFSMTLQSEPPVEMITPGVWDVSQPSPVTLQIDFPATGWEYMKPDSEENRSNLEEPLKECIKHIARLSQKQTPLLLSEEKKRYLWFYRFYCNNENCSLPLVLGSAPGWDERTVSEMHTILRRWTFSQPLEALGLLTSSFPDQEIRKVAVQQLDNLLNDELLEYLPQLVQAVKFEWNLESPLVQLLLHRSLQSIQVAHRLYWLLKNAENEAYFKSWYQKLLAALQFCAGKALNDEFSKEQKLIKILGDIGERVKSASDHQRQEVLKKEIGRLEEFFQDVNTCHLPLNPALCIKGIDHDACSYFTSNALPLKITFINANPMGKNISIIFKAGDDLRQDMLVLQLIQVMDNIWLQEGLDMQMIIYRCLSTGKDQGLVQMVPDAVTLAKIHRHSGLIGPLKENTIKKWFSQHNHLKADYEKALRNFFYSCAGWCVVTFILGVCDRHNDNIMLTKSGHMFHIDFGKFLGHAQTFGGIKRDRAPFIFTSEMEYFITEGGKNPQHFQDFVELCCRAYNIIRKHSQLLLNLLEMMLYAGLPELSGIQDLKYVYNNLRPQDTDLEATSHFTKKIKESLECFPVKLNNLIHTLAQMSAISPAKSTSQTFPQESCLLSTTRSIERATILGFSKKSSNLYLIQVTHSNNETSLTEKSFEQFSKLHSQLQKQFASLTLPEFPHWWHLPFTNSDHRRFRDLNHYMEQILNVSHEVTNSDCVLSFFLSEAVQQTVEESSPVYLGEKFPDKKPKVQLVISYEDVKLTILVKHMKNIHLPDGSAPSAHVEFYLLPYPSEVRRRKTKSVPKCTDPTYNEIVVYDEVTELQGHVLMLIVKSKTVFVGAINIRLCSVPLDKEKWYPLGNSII

For Cc1ccc(C2=Nc3cccnc3S(=O)(=O)c3ccccc32)cc1 [TBPT, 6-(p-tolyl)benzo[f] pyrido[2,3-b][1,4] thiazepine 11,11-dioxide], the remaining binding at 5 µM (AURKB; 5 μM) was 98%, the remaining binding at 10 µM (AURKB; 10 μM) was 92% and the remaining binding at 5 µM (BMPR1A; 5 μM) was 97%. It also gave a remaining binding at 10 µM (BMPR1A; 10 μM) of 80%, a remaining binding at 5 µM (BRAF(V600E); 5 μM) of 94% and a remaining binding at 10 µM (BRAF(V600E); 10 μM) of 94%. It also gave a remaining binding at 5 µM (BTK; 5 μM) of 91%, a remaining binding at 10 µM (BTK; 10 μM) of 83% and a remaining binding at 5 µM (CDC2L5; 5 μM) of 100%. The remaining binding at 10 µM (CDC2L5; 10 μM) was 97%, the remaining binding at 5 µM (CDKL3; 5 μM) was 77% and the remaining binding at 10 µM (CDKL3; 10 μM) was 74%. The remaining binding at 5 µM (EPHB4; 5 μM) was 100%, the remaining binding at 10 µM (EPHB4; 10 μM) was 98% and the remaining binding at 5 µM (HIPK2; 5 μM) was 100%. The remaining binding at 10 µM (HIPK2; 10 μM) was 100%, the remaining binding at 5 µM (HPK1; 5 μM) was 93% and the remaining binding at 10 µM (HPK1; 10 μM) was 100%. It also gave a remaining binding at 5 µM (JNK3; 5 μM) of 84%, a remaining binding at 10 µM (JNK3; 10 μM) of 95% and a remaining binding at 5 µM (KIT(D816V); 5 μM) of 62%. The remaining binding at 10 µM (KIT(D816V); 10 μM) was 99%, the remaining binding at 5 µM (LTK; 5 μM) was 100% and the remaining binding at 10 µM (LTK; 10 μM) was 100%. For the same compound, the remaining binding at 5 µM (LYN; 5 μM) was 87%, the remaining binding at 10 µM (LYN; 10 μM) was 100% and the remaining binding at 5 µM (MELK; 5 μM) was 100%. For the same compound, the remaining binding at 10 µM (MELK; 10 μM) was 100%, the remaining binding at 5 µM (MKNK1; 5 μM) was 36% and the remaining binding at 10 µM (MKNK1; 10 μM) was 100%. The remaining binding at 5 µM (MST1R; 5 μM) was 80%, the remaining binding at 10 µM (MST1R; 10 μM) was 100% and the remaining binding at 5 µM (MYLK; 5 μM) was 100%. For the same compound, the remaining binding at 10 µM (MYLK; 10 μM) was 81%, the remaining binding at 5 µM (NEK11; 5 μM) was 43% and the remaining binding at 10 µM (NEK11; 10 μM) was 100%. The remaining binding at 5 µM (PHKG1; 5 μM) was 100%, the remaining binding at 10 µM (PHKG1; 10 μM) was 94% and the remaining binding at 5 µM (PIK3C2G; 5 μM) was 100%. For the same compound, the remaining binding at 10 µM (PIK3C2G; 10 μM) was 100%, the remaining binding at 5 µM (PIK3CA(H1047L); 5 μM) was 100% and the remaining binding at 10 µM (PIK3CA(H1047L); 10 μM) was 100%. It also gave a remaining binding at 5 µM (PLK4; 5 μM) of 100%, a remaining binding at 10 µM (PLK4; 10 μM) of 92% and a remaining binding at 5 µM (PRKCI; 5 μM) of 95%. The remaining binding at 10 µM (PRKCI; 10 μM) was 91%, the remaining binding at 5 µM (RAF1; 5 μM) was 100% and the remaining binding at 10 µM (RAF1; 10 μM) was 91%. For the same compound, the remaining binding at 5 µM (ROCK1; 5 μM) was 84%, the remaining binding at 10 µM (ROCK1; 10 μM) was 100% and the remaining binding at 5 µM (SgK110; 5 μM) was 100%. For the same compound, the remaining binding at 10 µM (SgK110; 10 μM) was 100%, the remaining binding at 5 µM (TAK1; 5 μM) was 87% and the remaining binding at 10 µM (TAK1; 10 μM) was 93%. The remaining binding at 5 µM (TAOK2; 5 μM) was 90%, the remaining binding at 10 µM (TAOK2; 10 μM) was 67% and the remaining binding at 5 µM (VEGFR2; 5 μM) was 95%. The remaining binding at 10 µM (VEGFR2; 10 μM) was 84%, the remaining binding at 5 µM (YES; 5 μM) was 100% and the remaining binding at 10 µM (YES; 10 μM) was 100%.
